Experimental data published in patent US8293729B2 (Boehringer Ingelheim International GmbH, priority 2009, dated 2012).
pEC50: −log10 of the molar value. Like-named read-outs stand apart in the source and are kept apart here.

How the values were obtained:
[1] = biological target: T1, human GPR119 receptor (Homo sapiens, UniProt Q8TDV5, S329A/T327A); assay: cAMP assay (LANCE cAMP-384) in HEK293 cells stably expressing mutant human GPR119 receptor; format: cell-based
T1 construct: N-terminal leader […]; expressed in transfected cells
T1 sequence (Q8TDV5 with tags, fused parts or gaps T327A/S329A): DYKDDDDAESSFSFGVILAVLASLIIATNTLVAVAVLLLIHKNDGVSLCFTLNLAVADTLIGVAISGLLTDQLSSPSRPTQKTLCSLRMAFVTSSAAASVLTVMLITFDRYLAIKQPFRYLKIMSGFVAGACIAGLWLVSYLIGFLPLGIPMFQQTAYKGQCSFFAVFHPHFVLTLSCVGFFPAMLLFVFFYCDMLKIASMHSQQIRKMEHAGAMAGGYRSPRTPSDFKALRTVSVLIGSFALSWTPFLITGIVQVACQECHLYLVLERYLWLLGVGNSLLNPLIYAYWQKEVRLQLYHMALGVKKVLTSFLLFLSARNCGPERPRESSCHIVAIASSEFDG
In short: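 Agonist EC50 came from nonlinear regression over 12 concentrations (30 μM–100 pM), with % stimulation at 10 μM where no EC50 was obtained. Cells: stable HEK293 with mutant human GPR119 (T327A/S329A), 20 min compound at 37° C; cAMP read by LANCE kit with standard curve.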

[2] = system: male ZDF rats; assay: In vivo OGTT (oral glucose tolerance test) in Sprague Dawley or Zucker Diabetic Fatty rats; parameters: species or system rat; conditions: nine week old male ZDF rats, 30 mg/kg p.o. 30 minutes prior to glucose bolus, 2 hrs post glucose bolus
Procedure: Nine to 13 week old Male Sprague Dawley rats weighing 250 g-350 g or 9 week old male Zucker Diabetic Fatty rats weighing 300 g-450 g were fasted overnight for 16 hours. At time zero, blood was collected using the tail-nick method and glucose was measured with a glucometer (Bayer HealthCare) Animals then immediately received either vehicle (80% Labrasol, Gattefossé, France) or 3, 10, or 30 mg/kg GPR119 agonist (p.o., volume 2 mL/kg). Thirty minutes later blood glucose was again measured preceding the administration of a glucose bolus (p.o. 2 g/kg, volume 6 mL/kg). Blood glucose was then determined at 10, 20, 30, 60, 90, 120, and 180 minutes post glucose bolus or 20, 40, 60, 80, 100, and 120 minutes past glucose bolus.
Nine week old male ZDF rats were dosed with either 30 mg/kg of Compound 2-35 or 30 mg/kg of Compound 8-1 30 minutes prior to administration of the glucose bolus.

[3] = cAMP accumulation, HEK293 cells stably expressing mutant human GPR119, read-out: EC50

| Compound | pEC50 [1, 3] | also measured |
| --- | --- | --- |
| CNC(=O)c1cc(F)c(N2CCC(=NOC3CCN(C(=O)OC(C)C)CC3)CC2)cc1F [Example 2-35] | – | pEC50 ([1]; EC50, cAMP accumulation, HEK293 cells stably expressing mutant human GPR119): 7.47; reduction of glucose excursion compared to vehicle (glucose area under the curve) [2]: 75% |
| CC(C)OC(=O)N1CCC(ON=C2CCN(c3cc(F)c([C@@H](C)N)cc3F)CC2)CC1 [Example 8-1, 4-{1-[4-((R)-1-Amino-ethyl)-2,5-difluoro-phenyl]-piperidin-4-ylideneaminooxy}-piperidine-1-carboxylic acid isopropyl ester] | 6.27 | reduction of glucose excursion compared to vehicle (glucose area under the curve) [2]: 70% |
| CC(C)OC(=O)N1CCC(ON=C2CCN(c3ccc(C=O)c(F)c3)CC2)CC1 [Example 2-20] | 6.15 | – |
| CCS(=O)(=O)NCc1cc(F)c(N2CCC(=NOC3CCN(C(=O)OC(C)C)CC3)CC2)cc1F [Example 16-6] | 6.95 | – |
| CC(C)OC(=O)N1CCC(ON=C2CCN(c3nccc(C(F)(F)F)n3)CC2)CC1 [Example 2-66] | < 5.00 | – |
| CC(C)c1ccc(CN2CCC(ON=C3CCN(c4ccc(S(C)(=O)=O)cc4F)CC3)CC2)cc1 [Example 66-32] | – | pEC50 ([1]; the 36th table, compounds 66-1 to 66-51, read-out: EC50): 6.48 |
| CC(C)OC(=O)NCc1cc(F)c(N2CCC(=NOC3CCN(C(=O)OC(C)C)CC3)CC2)cc1F [Example 16-7] | 6.87 | – |
| CC(C)OC(=O)N1CCC(ON=C2CCN(c3cc(F)c(CN4CCOC4=O)cc3F)CC2)CC1 [Example 15-1, 4-{1-[2,5-DIFLUORO-4-(2-OXO-OXAZOLIDIN-3-YLMETHYL)-PHENYL]-PIPERIDIN-4-YLIDENEAMINOOXY}-PIPERIDINE-1-CARBOXYLIC ACID ISOPROPYL ESTER] | 6.85 | – |
| CC(C)OC(=O)N1CCC(ON=C2CCN(c3cc(F)c(CC(=O)NCC4CCNC4)cc3F)CC2)CC1 (stereo not drawn) [Example 75-27] | – | pEC50 ([1]; the 43rd table, compounds 75-1 to 75-38, read-out: EC50): 6.10 |
| CC(C)OC(=O)N1CCC(ON=C2CCN(c3cc(F)c(C(=O)N4CCCC(CN5CCCCC5)C4)cc3F)CC2)CC1 (stereo not drawn) [Example 29-56] | – | pEC50 ([1]; the 15th table, read-out: EC50): 6.88 |
